Activity calls are given as the source filed them. The calls are words filed in the database; no cut-off is given here.
Legend:
[1] = Inhibition of PLA2 activity at 8 uM
[2] = Inhibition of PLA2 activity at 4 uM

Structure (SMILES)	Activity [1]	other results
CC(=O)OC[C@]12CCCC(C)(C)[C@@H]1CC[C@]1(C)[C@@H]2C[C@@H](O)[C@]2(C)[C@H]3C(=O)O[C@@H](C)[C@@H]3[C@@H](OC(C)=O)C[C@@H]12	inactive	–
COC(=O)[C@H]1[C@H](C(C)=O)[C@@H](OC(C)=O)C[C@H]2[C@]3(C)CC[C@H]4C(C)(C)CCC[C@]4(COC(C)=O)[C@H]3C[C@@H](O)[C@]12C	inactive	–
CC(=O)OC[C@]12CCCC(C)(C)[C@@H]1CC[C@]1(C)[C@@H]2C[C@H]2OC(=O)[C@H]3[C@H](C(C)=O)[C@H](OC(C)=O)C[C@@H]1[C@]23C	–	inhibition [1]: 35%
CC1=C(CC/C(C)=C/CCC2=CC[C@H](C3=CC(=O)O[C@H]3O)O[C@H]2O)C(C)(C)CCC1	–	inhibition [2]: 100%

Source: ChEMBL document CHEMBL1149720, “Homoscalarane sesterterpenes from Lendenfeldia frondosa” (J Nat Prod, 1992)
